{"source": "patent US6852696B2", "about": "“Inhibitors of glycosaminoglycans” (The University of Texas System, priority 1999, dated 2005)", "key": {"B16-F10 melanoma cells": {"test_system": "B16-F10 melanoma cells", "test": "Local growth of s.c. inoculated B16-F10 melanoma", "assay_type": "in vivo, C57BL/6 mice", "details": "40 μg/injection locally, days 0, 3, 6; measured day 10", "protocol": "FIGS. 4A-C. Impact of Pep-1 on lung metastasis of melanoma. (FIG. 4A) B16-F10 melanoma cells were suspended (4×10^5 cells/ml) in PBS containing Pep-1 monomer (2 or 3 mg/ml) (circles) or 2% DMSO alone (triangles). C57BL/6 mice received i.v. injection of these cell suspensions (500 μl/animal) and were examined for survival. Data shown are the cumulative survival curves from four independent experiments (n=37 for Pep-1 and n=20 for PBS control). […] (FIG. 4B) B16-F10 melanoma cells (1×10^5 cells/animal) were s.c. injected into the back of C57BL/6 mice. Pep-1 or RP (40 μg/injection) was injected locally into the tumor inoculation sites 0. 3. and 6 days after tumor injection. Data shown are the means+/−s.e.m. (n=10) of tumor sizes and tumor weights measured 10 days after tumor inoculation. (FIG. 4C) B16-F10 melanoma cells (2×10^5 cells/well) were cultured in the presence of the indicated concentrations of Pep-1 (closed circles) or PR (open circles). Data shown are the means+/−s.e.m.(n=3) of ^3H-thymidine uptake at 24 hr."}, "Langerhans cells (LC)": {"test_system": "Langerhans cells (LC)", "test": "DNFB-induced LC maturation (CD86 expression by IA+ epidermal cells)", "assay_type": "in vivo, BALB/c mice", "details": "two local injections, 40 μg/injection/ear, 24 and 3 hours before DNFB", "source_text": "FIGS. 6A-C. Impact of Pep-1 on hapten-induced LC maturation. (FIG. 6A) Epidermal cells isolated from BALB/c mice at 17 hr after topical application of 0.5% DNFB or vehicle alone were double-stained with FITC-conjugated anti-IA mAb and PE-conjugated anti-CD86 mAb. Data shown are representative two-color FACS profiles, documenting marked elevated surface expression of CD86 by IA^+ epidermal cells (i.e., LC) after DNFB application. (FIG. 6B) BALB/c mice received subcutaneous two local injections of Pep-1 or RP (40 μg/injection/ear) 24 and 3 hours before topical application of 0.5% DNFB and epidermal cells were isolated 17 hr later to examine the expression levels of CD86 on LC. […] (FIG. 6C) Graphical representation of the % CD86^+ cells/IA^+ LC from three independent experiments described in (FIG. 6B) with circles, triangles, and squares showing corresponding pairs in each experiment. Bars represent the mean values (n=3) and the asterisk indicates statistically significant difference between the Pep-1 and the RP panels (*p<0.03 by the Mann-Whitney U test).\nA critical question concerns the physiological significance of the above finding. Topical application of haptens is known to trigger not only LC migration from the epidermis, but also their maturation. […]"}, "HA": {"test_system": "HA", "test": "Adhesion of 35S-labeled B16-F10 melanoma cells to HA-coated plates", "assay_type": "cell-based, mouse", "protocol": "Three different Pep-1 derivatives were compared for their biological activities at the same concentration in terms of the molarity (150 μM) of the 16-mer Pep-1 peptide sequence. […] Data shown are the means+/−S.D. of % binding from quadruplicate samples. Asterisks indicate statistically significant differences (**p<0.01 by two-tailed Student's t-test).\nFIGS. 9A-G. DC-associated HA and DC-dependent T cell proliferation. (A) DO11.10 T cells were cultured with y-irradiated splenic DC and/or OVA323-339 (2 μg/ml) in the presence of intact bPG (250 μg/ml), heat-denatured bPG, or PBS alone. Data shown are the means+/−s.d. (n=3) of ^3H-thymidine uptake. (B) DO11.10 T cells were cultured with the indicated numbers of splenic DC and OVA323-339 in the presence of Pep-1 (300 μM) (open circles), RP (closed circles), or PBS alone (squares). (C) Pep-1 (open circles) or PEG-conjugated Pep-1 (open triangles) were compared at the indicated concentrations (in terms of the molarity of the 12-mer Pep-1 sequence) for their abilities to inhibit the adhesion of ^35S-labeled B16 melanoma cells onto the HA-coated plates (Mummert et al. J. Exp. Med. 192:769-779, 2000). […] Statistically significant differences assessed by a two-tailed Student's t-test for comparing two groups or by analysis of variance (ANOVA) followed by LSD for multiple comparisons are indicated by asterisks (*P<0.05, **P<0.01)."}}, "note": "Entries after “also recorded” stand apart in the source; their conditions may differ.", "data": [{"sequence": "GAHWQFNALTVR [Pep-1]", "values": [{"measurement": "effect on local growth in animals following s.c. inoculation", "setting": "B16-F10 melanoma cells", "result": "no apparent effects"}, {"measurement": "prevention of DNFB-induced LC maturation (CD86 up-regulation)", "setting": "Langerhans cells (LC)", "result": "prevented this DNFB-induced LC maturation; also recorded: is prevented"}, {"measurement": "blocking of B16-F10 adhesion to HA-coated plates", "setting": "HA", "result": "blocked efficiently"}, {"measurement": "inhibition of HA-mediated cell adhesion", "setting": "HA; 150 μM in terms of molarity of the Pep-1 peptide sequence", "result": "only modest inhibition"}]}]}
